Measured values as given in patent US20240360114A1 (SIRONAX LTD., priority 2021, published 2024).

tested on: HT-1080 cells; test: HT-1080 cell viability assay (ferroptosis induced by RSL3, Cell Titer-Glo); type: cell-based; conditions: Homo sapiens, HT-1080, 20 h, ferroptosis inducer RSL3, 20 hours, ferroptosis inhibitory activity, Table 2
Summary of the method: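 EC50 fitted by sigmoidal dose-response regression on luminescent viability data normalized to untreated cells. Compounds ran as a 10-point, 3-fold series from 1.1 μM alongside RSL3 for 20 hours, after overnight seeding.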

| EC50 | SMILES |
| --- | --- |
| 0.1 to 100 nM | CCCCCCOc1cc(NC2CCC(N)CC2)ccc1C(C)(C)C (stereo not shown) [Compound 271, N1-(4-(tert-butyl)-3-(hexyloxy)phenyl)cyclohexane-1,4-diamine] |
| 0.1 to 100 nM | CCC(C)(C)c1ccc(NC2CCC(N)C2)cc1 (stereo not shown) [Compound 272, N^1-(4-(tert-pentyl)phenyl)cyclopentane-1,3-diamine] |
| 0.1 to 100 nM | CCC(C)(C)c1ccc(NC2CC(N)C2)cc1 (stereo not shown) [Compound 273, N1-(4-(tert-pentyl)phenyl)cyclobutane-1,3-diamine] |
| 0.1 to 100 nM | CC1(C)CCC(c2ccc(NC3CCC(NC(=O)C4CNCCN4)CC3)cc2)CC1 (stereo not shown) [Compound 274, N-(4-((4-(4,4-dimethylcyclohexyl)phenyl)amino)cyclohexyl) piperazine-2-carboxamide] |
| 0.1 to 100 nM | CC1(C)CCC(c2ccc(NC3CCC(N)(CO)CC3)cc2)CC1 (stereo not shown) [Compound 275A] |
| 0.1 to 100 nM | CC(C)(C)c1ccc(NC2CC3(CC(N)C3)C2)cc1 (stereo not shown) [Compound 276, N2-(4-(tert-butyl)phenyl)spiro[3.3]heptane-2,6-diamine] |
| 0.1 to 100 nM | CC(C)(C)c1ccc(NC2CC3CC(N)CC3C2)cc1 (stereo not shown) [Compound 277, N2-(4-(tert-butyl)phenyl) octahydropentalene-2,5-diamine] |
| 0.1 to 100 nM | CCCc1ccc(NC2CCC(C)(N)CC2)cc1 (stereo not shown) [Compound 278, 1-methyl-N4-(4-propylphenyl)cyclohexane-1,4-diamine] |
| 0.1 to 100 nM | C[C@H](O)[C@@H](N)C(=O)NC1CCC(Nc2ccc(C3CCC(C)(C)CC3)cc2)CC1 (stereo partly drawn) [Compound 279, (2R, 3S)-2-amino-N-(4-((4-(4,4-dimethylcyclohexyl)phenyl)amino)cyclohexyl)-3-hydroxybutanamide] |
| 0.1 to 100 nM | NC1CCC(Nc2ccc(C3CCC(C(F)(F)F)CC3)cc2)CC1 (stereo not shown) [Compound 280, N1-(4-(4-(trifluoromethyl)cyclohexyl)phenyl)cyclohexane-1,4-diamine] |
| 0.1 to 100 nM | CCc1c(C)cc(NC2CCC(N)CC2)cc1C (stereo not shown) [Compound 281, N1-(4-ethyl-3,5-dimethylphenyl)cyclohexane-1,4-diamine] |
| 100 to 1000 nM | Cc1ccc(NC2CCC(CN)CC2)cc1C (stereo not shown) [Compound 282, N-(4-(aminomethyl)cyclohexyl)-3,4-dimethylaniline] |
| 0.1 to 100 nM | CC(C)c1ccc(NC2CCC(CN)CC2)cc1 (stereo not shown) [Compound 283, N-(4-(aminomethyl)cyclohexyl)-4-isopropylaniline] |
| 0.1 to 100 nM | NCC1CCC(Nc2ccc3c(c2)CCCC3)CC1 (stereo not shown) [Compound 286, N-(4-(aminomethyl)cyclohexyl)-5,6,7,8-tetrahydronaphthalen-2-amine] |
| 0.1 to 100 nM | CC(C)(C)c1ccc(NC2CCC(CCCN)CC2)cc1 (stereo not shown) [Compound 287, N-(4-(3-aminopropyl)cyclohexyl)-4-(tert-butyl)aniline] |
| 0.1 to 100 nM | CC(C)(C)c1ccc(NC[C@H]2CC[C@@H](N)CC2)cc1 [Compound 288, N-(((1s, 4s)-4-aminocyclohexyl)methyl)-4-(tert-butyl)aniline] |
| 0.1 to 100 nM | CC(N)C1CCC(Nc2ccc(C(C)(C)C)cc2)CC1 (stereo not shown) [Compound 290, N-(4-(1-aminoethyl)cyclohexyl)-4-(tert-butyl)aniline] |
| 0.1 to 100 nM | CCCc1ccc(NC2CCC(CN)CC2)cc1 (stereo not shown) [Compound 291, N-(4-(aminomethyl)cyclohexyl)-4-propylaniline] |
| 0.1 to 100 nM | CCCc1ccc(NC2CCC(CCN)CC2)cc1 (stereo not shown) [Compound 292, N-(4-(2-aminoethyl)cyclohexyl)-4-propylaniline] |
| 100 to 1000 nM | CCOCCCc1ccc(N[C@H]2CC[C@H](N)CC2)cc1 [Compound 293, (1r,4r)-N1-(4-(3-ethoxypropyl)phenyl)cyclohexane-1,4-diamine] |
| 0.1 to 100 nM | CCC(C)(C)c1ccc(NC2CCC(N)(CO)CC2)cc1 (stereo not shown) [Compound 296A, (1-amino-4-((4-(tert-pentyl)phenyl)amino)cyclohexyl)methanol] |
| 0.1 to 100 nM | CC(CN1CCCC1)Nc1ccc(C2CCC(C)(C)CC2)cc1 (stereo not shown) [Compound 297, 4-(4,4-dimethylcyclohexyl)-N-(1-(pyrrolidin-1-yl)propan-2-yl)aniline] |
| 100 to 1000 nM | CCC(C)(C)c1ccc(NC2CCC(O)CC2)cc1 (stereo not shown) [Compound 298, 4-((4-(tert-pentyl)phenyl)amino)cyclohexan-1-ol] |
| 0.1 to 100 nM | COCCCOc1cc(NC2CCC(N)CC2)ccc1C(C)(C)C (stereo not shown) [Compound 300A, N1-(4-(tert-butyl)-3-(3-methoxypropoxy)phenyl)cyclohexane-1,4-diamine] |
| 0.1 to 100 nM | COCCOc1cc(NC2CCC(N)CC2)ccc1C(C)(C)C (stereo not shown) [Compound 301A, N1-(4-(tert-butyl)-3-(2-methoxyethoxy)phenyl)cyclohexane-1,4-diamine] |

| EC50 | SMILES |
| --- | --- |
| 0.1 to 100 nM | CC(C)(C)c1ccc(NC2CCC(CCCCN)CC2)cc1 (stereo not shown) [Compound 303, N-(4-(4-aminobutyl)cyclohexyl)-4-(tert-butyl)aniline] |
| 100 to 1000 nM | CCc1ccc(NC2CCC(N)CC2)cc1C (stereo not shown) [Compound 304, N1-(4-ethyl-3-methylphenyl)cyclohexane-1,4-diamine] |
| 0.1 to 100 nM | N[C@H]1CC[C@@H](CNc2ccc3c(c2)CCC3)CC1 [Compound 307, N-(((1s,4s)-4-aminocyclohexyl)methyl)-2,3-dihydro-1H-inden-5-amine] |
| 0.1 to 100 nM | N[C@H]1CC[C@H](CNc2ccc3c(c2)CCC3)CC1 [Compound 308, N-(((1r,4r)-4-aminocyclohexyl)methyl)-2,3-dihydro-1H-inden-5-amine] |
| 0.1 to 100 nM | N[C@H]1CC[C@@H](CNc2ccc3c(c2)CCCC3)CC1 [Compound 309, N-(((1r,4r)-4-aminocyclohexyl)methyl)-5,6,7,8-tetrahydronaphthalen-2-amine] |
| 0.1 to 100 nM | N[C@H]1CC[C@H](CNc2ccc3c(c2)CCCC3)CC1 [Compound 310, N-(((1r,4r)-4-aminocyclohexyl)methyl)-5,6,7,8-tetrahydronaphthalen-2-amine] |
| 0.1 to 100 nM | Cc1cc(NC2CCC(CN)CC2)cc(C)c1C (stereo not shown) [Compound 312, N-(4-(aminomethyl)cyclohexyl)-3,4,5-trimethylaniline] |
| 0.1 to 100 nM | Cc1cc(NC[C@H]2CC[C@H](N)CC2)cc(C)c1C [Compound 314, N-(((1r,4r)-4-aminocyclohexyl)methyl)-3,4,5-trimethylaniline] |
| 0.1 to 100 nM | CCCc1ccc(NC[C@H]2CC[C@H](N)CC2)cc1 [Compound 315, N-(((1r,4r)-4-aminocyclohexyl)methyl)-4-propylaniline] |
| 0.1 to 100 nM | Cc1ccc(NC[C@H]2CC[C@H](N)CC2)cc1C [Compound 316, N-(((1r,4r)-4-aminocyclohexyl)methyl)-3,4-dimethylaniline] |
| 0.1 to 100 nM | CC(C)(C)c1ccc(NC2CCC(NCCCO)CC2)cc1 (stereo not shown) [Compound 317, 3-((4-((4-(tert-butyl)phenyl)amino)cyclohexyl)amino)propan-1-ol] |
| 100 to 1000 nM | CN(C)CCOC1CCC(Nc2ccc(C(C)(C)C)cc2)CC1 (stereo not shown) [Compound 319A, 4-(tert-butyl)-N-(4-(2-(dimethylamino)ethoxy)cyclohexyl)aniline] |
| 100 to 1000 nM | CCOCC(C)(C)c1ccc(NC2CCC(N)CC2)cc1 (stereo not shown) [Compound 320A, N1-(4-(1-ethoxy-2-methylpropan-2-yl)phenyl)cyclohexane-1,4-diamine] |
| 100 to 1000 nM | CC(C)(C)c1ccc(NC2CCC(NCCCCO)CC2)cc1 (stereo not shown) [Compound 321, 4-((4-((4-(tert-butyl)phenyl)amino)cyclohexyl)amino) butan-1-ol] |
| 0.1 to 100 nM | CC(C)(C)c1ccc(NC2CCC(CNCCO)CC2)cc1 (stereo not shown) [Compound 322, 2-(((4-((4-(tert-butyl)phenyl)amino)cyclohexyl)methyl)amino)ethan-1-ol] |
| 0.1 to 100 nM | CC(C)(C)c1ccc(NC[C@H]2CC[C@H](NCCO)CC2)cc1 [Compound 323, 2-(((1r,4r)-4-(((4-(tert-butyl)phenyl)amino)methyl)cyclohexyl)amino)ethan-1-ol] |
| 0.1 to 100 nM | CC1(C)Cc2ccc(NC3CCC(N)CC3)cc2C1 (stereo not shown) [Compound 324, N-(2,2-dimethyl-2,3-dihydro-1H-inden-5-yl)cyclohexane-1,4-diamine] |
| 0.1 to 100 nM | CC1(C)CC(C)(C)c2cc(NC3CCC(N)CC3)ccc21 (stereo not shown) [Compound 325A, N1-(1,1,3,3-tetramethyl-2,3-dihydro-1H-inden-5-yl)cyclohexane-1,4-diamine] |
| 0.1 to 100 nM | CC(C)(C)c1ccc(NC2CCC(CCCCCN)CC2)cc1 (stereo not shown) [Compound 326, N-(4-(5-aminopentyl)cyclohexyl)-4-(tert-butyl)aniline] |
| 100 to 1000 nM | CC(C)(C)c1ccc(NC2CCC(N)C(O)C2)cc1 (stereo not shown) [Compound 327, 2-amino-5-((4-(tert-butyl)phenyl)amino)cyclohexan-1-ol] |
| 0.1 to 100 nM | CC(C)(C)c1ccc(NCC2CCC(N)C2)cc1 (stereo not shown) [Compound 328, N-((3-aminocyclopentyl)methyl)-4-(tert-butyl)aniline] |
| 0.1 to 100 nM | CCc1cc(NC2CCC(N)CC2)ccc1C(C)(C)C (stereo not shown) [Compound 329, 1-N-(4-(tert-butyl)-3-ethylphenyl)cyclohexane-1,4-diamine] |
| 0.1 to 100 nM | CC1(C)CCc2cc(NC3CCC(N)CC3)ccc21 (stereo not shown) [Compound 330A, N1-(1,1-dimethyl-2,3-dihydro-1H-inden-5-yl)cyclohexane-1,4-diamine] |
| 100 to 1000 nM | Cc1cc(C)cc(NC2CCC(N)CC2)c1 (stereo not shown) [Compound 331, N1-(3,5-dimethylphenyl)cyclohexane-1,4-diamine] |

| SMILES | EC50 |
| --- | --- |
| COCCCCOc1cc(NC2CCC(N)C2)ccc1C(C)(C)C (stereo not shown) [Compound 302, N1-(4-(tert-butyl)-3-(4-methoxybutoxy)phenyl)cyclopentane-1,3-diamine] | 0.1 to 100 nM |

same assay, conditions: Homo sapiens, ferroptosis inducer RSL3, 20 hours, ferroptosis inhibitory activity, Table 2

| SMILES | EC50 |
| --- | --- |
| NC1CCC(Nc2ccc(C3CCC3)cc2)CC1 (stereo not shown) [Compound 318A, 1-N-(4-cyclobutylphenyl)cyclohexane-1,4-diamine] | 0.1 to 100 nM |

same assay, conditions: ferroptosis inducer RSL3, 20 hours, ferroptosis inhibitory activity, Table 2

| EC50 | SMILES |
| --- | --- |
| 0.1 to 100 nM | CC1(N)CCC(Nc2ccc3c(c2)CCCC3)CC1 (stereo not shown) [Compound 285, 1-methyl-N4-(5,6,7,8-tetrahydronaphthalen-2-yl)cyclohexane-1,4-diamine] |
